Reference: patent publication US12049450B2, “Pyridyloxy-carboxylate derivative and preparation method therefor, herbicidal composition, and use” (Qingdao Kingagroot Chemical Compound Co., Ltd., priority 2018, dated 2024)

Key:
Assay in all cases: Post-emergence test experiment (greenhouse pot, spray at 2-3 leaf stage)
Assay type in all cases: in vivo
Conditions in all cases: 1000 g/ha; post-emergence spray at 2-3 leaf stage; assessed after 3 weeks; fresh weight inhibition rate
Digitaria sanguinalis = test system: Digitaria sanguinalis
Outline: (§1)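 Activity graded levels 0-5 by fresh-weight inhibition (level 5 above 85%, level 0 below 5%), assessed 3 weeks after treatment. Plants grown in greenhouse pots were sprayed post-emergence at 2-3 leaves using acetone/tween-80 solutions with methyl oleate synergist (1.5 L/ha).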

Abutilon theophrasti = test system: Abutilon theophrasti
Outline: as §1

Galium spurium = test system: Galium spurium
Outline: as §1

Echinochloa crusgalli = test system: Echinochloa crusgalli
Outline: as §1

Monochoria vaginalis = test system: Monochoria vaginalis
Outline: as §1

Compound | Activity level (growth inhibition rate) Digitaria sanguinalis (Digitaria sanguinalis) | Activity level (growth inhibition rate) Abutilon theophrasti (Abutilon theophrasti) | Activity level (growth inhibition rate) Galium spurium (Galium spurium) | Activity level (growth inhibition rate) Echinochloa crusgalli (Echinochloa crusgalli) | Activity level (growth inhibition rate) Monochoria Vaginalis (Monochoria vaginalis)
CC(Oc1nc(F)c(Cl)c(N)c1Cl)C(=O)OCc1cnn(C)c1 (centres unmarked) [Compound 217] | 5 (Level 5: the growth inhibition rate is greater than 85%) | 5 (Level 5: the growth inhibition rate is greater than 85%) | 5 (Level 5: the growth inhibition rate is greater than 85%) | 5 (Level 5: the growth inhibition rate is greater than 85%) | 5 (Level 5: the growth inhibition rate is greater than 85%)
Cc1ccccc1CSC(=O)C(C)Oc1nc(F)c(Cl)c(N)c1Cl (centres unmarked) [Compound 218] | 5 (Level 5: the growth inhibition rate is greater than 85%) | 5 (Level 5: the growth inhibition rate is greater than 85%) | 5 (Level 5: the growth inhibition rate is greater than 85%) | 5 (Level 5: the growth inhibition rate is greater than 85%) | 5 (Level 5: the growth inhibition rate is greater than 85%)
Cc1cccc(CSC(=O)C(C)Oc2nc(F)c(Cl)c(N)c2Cl)c1 (centres unmarked) [Compound 219] | 5 (Level 5: the growth inhibition rate is greater than 85%) | 5 (Level 5: the growth inhibition rate is greater than 85%) | 5 (Level 5: the growth inhibition rate is greater than 85%) | 5 (Level 5: the growth inhibition rate is greater than 85%) | 5 (Level 5: the growth inhibition rate is greater than 85%)
Cc1ccc(CSC(=O)C(C)Oc2nc(F)c(Cl)c(N)c2Cl)cc1 (centres unmarked) [Compound 220] | 5 (Level 5: the growth inhibition rate is greater than 85%) | 5 (Level 5: the growth inhibition rate is greater than 85%) | 5 (Level 5: the growth inhibition rate is greater than 85%) | 5 (Level 5: the growth inhibition rate is greater than 85%) | 5 (Level 5: the growth inhibition rate is greater than 85%)
CC(Oc1nc(F)c(Cl)c(N)c1Cl)C(=O)SCc1ccccc1F (centres unmarked) [Compound 221] | 5 (Level 5: the growth inhibition rate is greater than 85%) | 5 (Level 5: the growth inhibition rate is greater than 85%) | 5 (Level 5: the growth inhibition rate is greater than 85%) | 5 (Level 5: the growth inhibition rate is greater than 85%) | 5 (Level 5: the growth inhibition rate is greater than 85%)
CC(Oc1nc(F)c(Cl)c(N)c1Cl)C(=O)SCc1cccc(F)c1 (centres unmarked) [Compound 222] | 5 (Level 5: the growth inhibition rate is greater than 85%) | 5 (Level 5: the growth inhibition rate is greater than 85%) | 5 (Level 5: the growth inhibition rate is greater than 85%) | 5 (Level 5: the growth inhibition rate is greater than 85%) | 5 (Level 5: the growth inhibition rate is greater than 85%)
CC(Oc1nc(F)c(Cl)c(N)c1Cl)C(=O)SCc1ccc(F)cc1 (centres unmarked) [Compound 223] | 5 (Level 5: the growth inhibition rate is greater than 85%) | 5 (Level 5: the growth inhibition rate is greater than 85%) | 5 (Level 5: the growth inhibition rate is greater than 85%) | 5 (Level 5: the growth inhibition rate is greater than 85%) | 5 (Level 5: the growth inhibition rate is greater than 85%)
